Results as given in ChEMBL document CHEMBL1133394, “Novel C-ring analogues of 20(S)-camptothecin. Part 3: synthesis and their in vitro cytotoxicity of A-, B- and C-ring analogues” (Bioorg Med Chem Lett, 2000).

Experiments:
ACHN [1] = test: Tested in vitro for cytotoxicity against human tumor cell line ACHN (renal).; assay type: functional
DU-145 [2] = test: Tested in vitro for cytotoxicity against human tumor cell line DU-145 (prostate); assay type: functional
NCI/ADR-RES = test: Tested in vitro for cytotoxicity against human tumor cell line MCF-7/ADR (breast); assay type: functional
OVCAR-8 = test: Tested in vitro for cytotoxicity against human tumor cell line OVCAR8 (ovarian).; assay type: functional
SF-268 = test: Tested in vitro for cytotoxicity against human tumor cell line SF-268 (CNS).; assay type: functional
UACC-62 = test: Tested in vitro for cytotoxicity against human tumor cell line UACC 62 (melanoma); assay type: functional
HOP-62 = test: Tested in vitro for cytotoxicity against human tumor cell line HOP62 (lung); assay type: functional
[3] = test system: Panel (56 tumour cell lines); test: Tested in vitro for cytotoxicity against 56 human tumor cell lines; assay type: functional, cell-based
Mus musculus [4] = test: The compound (134 mg/kg) administered intravenously was tested for antitumor activity against A-498 (renal) xenograft model in mice; assay type: functional
Mus musculus [5] = test: The compound (134 mg/kg) administered intravenously was tested for antitumor activity against DU-145 (prostate) xenograft model in mice; assay type: functional, Prostate gland
Mus musculus [6] = test: (§1) The compound (134 mg/kg) administered intravenously was tested for antitumor activity against NCI-H23 (lung) xenograft model in mice; assay type: functional
Mus musculus [7] = test: The compound (200 mg/kg) administered intravenously was tested for antitumor activity against A-498 (renal) xenograft model in mice; assay type: functional
Mus musculus [8] = test: The compound (200 mg/kg) administered intravenously was tested for antitumor activity against DU-145 (prostate) xenograft model in mice; assay type: functional, Prostate gland
Mus musculus [9] = test: (§2) The compound (200 mg/kg) administered intravenously was tested for antitumor activity against NCI-H23 (lung) xenograft model in mice; assay type: functional
Mus musculus [10] = test: The compound (90 mg/kg) administered intravenously was tested for antitumor activity against A-498 (renal) xenograft model in mice; assay type: functional
Mus musculus [11] = test: The compound (90 mg/kg) administered intravenously was tested for antitumor activity against DU-145 (prostate) xenograft model in mice; assay type: functional, Prostate gland
Mus musculus [12] = test: (§3) The compound (90 mg/kg) administered intravenously was tested for antitumor activity against NCI-H23 (lung) xenograft model in mice; assay type: functional
Mus musculus [13] = test: The compound (10 mg/kg) administered intravenously was tested for antitumor activity against DU-145 (prostate) xenograft model in mice; assay type: functional, Prostate gland
Mus musculus [14] = test: The compound (2.5 mg/kg) administered intravenously was tested for antitumor activity against A-498 (renal) xenograft model in mice; assay type: functional
Mus musculus [15] = test: The compound (2.5 mg/kg) administered intravenously was tested for antitumor activity against DU-145 (prostate) xenograft model in mice; assay type: functional, Prostate gland
Mus musculus [16] = test: The compound (5 mg/kg) administered intravenously was tested for antitumor activity against A-498 (renal) xenograft model in mice; assay type: functional
Mus musculus [17] = test: The compound (5 mg/kg) administered intravenously was tested for antitumor activity against DU-145 (prostate) xenograft model in mice; assay type: functional, Prostate gland
Mus musculus [18] = test: The compound (10 mg/kg) administered intravenously was tested for antitumor activity against A-498 (renal) xenograft model in mice; assay type: functional
NCI-H23 [19] = test: The compound (10 mg/kg) administered intravenously was tested for antitumor activity against NCI-H23 (lung) xenograft model in mice; assay type: functional, Mus musculus
NCI-H23 [20] = test: The compound (2.5 mg/kg) administered intravenously was tested for antitumor activity against NCI-H23 (lung) xenograft model in mice; assay type: functional, Mus musculus
NCI-H23 [21] = test: The compound (5 mg/kg) administered intravenously was tested for antitumor activity against NCI-H23 (lung) xenograft model in mice; assay type: functional, Mus musculus
ACHN [22] = test: The compound was tested in vitro for cytotoxicity against human tumor cell line ACHN (renal).; assay type: functional
DU-145 [23] = test: The compound was tested in vitro for cytotoxicity against human tumor cell line DU-145 (prostate); assay type: functional
NCI-H23 [24] = test: as §1; assay type: functional, Mus musculus
NCI-H23 [25] = test: as §2; assay type: functional, Mus musculus
NCI-H23 [26] = test: as §3; assay type: functional, Mus musculus

Row | SMILES | GI50 (ACHN [1]) [nM] | GI50 (DU-145 [2]) [nM] | GI50 (NCI/ADR-RES) [nM] | GI50 (OVCAR-8) [nM] | GI50 (SF-268) [nM] | GI50 (UACC-62) [nM] | GI50 (HOP-62) [nM] | IC50 [3] [nM] | also measured
1 | CCc1c2c(nc3cccc(OC)c13)-c1cc3c(c(=O)n1C2OCCOC)COC(=O)[C@]3(O)CC (some centres undefined) | 520 | 1140 | 510 | 850 | 590 | 2540 | 660 |  | 
2 | CCOC1c2cc3c([N+](=O)[O-])cccc3nc2-c2cc3c(c(=O)n21)COC(=O)[C@]3(O)CC (some centres undefined) |  |  |  |  |  |  |  | 27500 | 
3 | CCOC1c2cc3c(O)cccc3nc2-c2cc3c(c(=O)n21)COC(=O)[C@]3(O)CC (some centres undefined) |  |  |  |  |  |  |  | 200 | T-C/C (Mus musculus [4]): 8%; T-C/C (Mus musculus [5]): 27%; T-C/C (Mus musculus [6]): 15%; T-C/C (Mus musculus [7]): 6%; T-C/C (Mus musculus [8]): 33%; T-C/C (Mus musculus [9]): 12%; T-C/C (Mus musculus [10]): 23%; T-C/C (Mus musculus [11]): 9%; T-C/C (Mus musculus [12]): 8%
4 | CC[C@@]1(O)C(=O)OCc2c1cc1n(c2=O)Cc2cc3c(CN(C)C)c(O)ccc3nc2-1 [TOPOTECAN] | 40 | 40 | 70 | 200 | 80 | 30 | 50 | 160 | T-C/C (Mus musculus [13]): 339%; T-C/C (Mus musculus [14]): 11%; T-C/C (Mus musculus [15]): 83%; T-C/C (Mus musculus [16]): 67%; T-C/C (Mus musculus [17]): 35%; T-C/C (Mus musculus [18]): 47%; T-C/C (NCI-H23 [19]): 60%; T-C/C (NCI-H23 [20]): 10%; T-C/C (NCI-H23 [21]): 6%
5 | CCc1c2c(nc3ccc(O)cc13)-c1cc3c(c(=O)n1C2OCC(F)(F)F)COC(=O)[C@]3(O)CC (some centres undefined) | 400 | 1000 | 400 | 500 | 2000 | 70 | 2000 |  | 
6 | CC[C@@]1(O)C(=O)OCc2c1cc1n(c2=O)C(OCCO)c2cc3cc(O)ccc3nc2-1 (some centres undefined) | 3400 | 3260 |  | 2520 | 2100 | 2120 | 2440 |  | 
7 | CCc1c2c(nc3cccc(OC)c13)-c1cc3c(c(=O)n1C2OCCF)COC(=O)[C@]3(O)CC (some centres undefined) | 1060 | 790 | 1990 | 1920 | 1890 | 2020 | 1220 |  | 
8 | CC[C@@]1(O)C(=O)OCc2c1cc1n(c2=O)C(OCCOC)c2cc3c([N+](=O)[O-])cccc3nc2-1 (some centres undefined) |  |  |  | 970 | 1000 | 470 | 400 |  | GI50 (ACHN [22]): 430 nM; GI50 (DU-145 [23]): 440 nM
9 | CCOC1c2c(nc3cccc(OC)c3c2CC)-c2cc3c(c(=O)n21)COC(=O)[C@]3(O)CC (some centres undefined) |  |  |  |  |  |  |  | 5370 | 
10 | CCc1c2c(nc3ccc(O)cc13)-c1cc3c(c(=O)n1C2OCCOC)COC(=O)[C@]3(O)CC (some centres undefined) | 600 | 550 | 200 | 100 | > 30000 | 600 | 20000 |  | 
11 | CC[C@@]1(O)C(=O)OCc2c1cc1n(c2=O)C(OCC(F)(F)F)c2cc3c([N+](=O)[O-])cccc3nc2-1 (some centres undefined) | 20 | 60 | 70 | 130 | 90 | 160 | 500 |  | 
12 | CCOC1c2cc3cccc([N+](=O)[O-])c3nc2-c2cc3c(c(=O)n21)COC(=O)[C@]3(O)CC (some centres undefined) |  |  |  |  |  |  |  | > 30000 | 
13 | CCOC1c2c(nc3cccc(O)c3c2CC)-c2cc3c(c(=O)n21)COC(=O)[C@]3(O)CC (some centres undefined) |  |  |  |  |  |  |  | 4670 | 
14 | CC[C@@]1(O)C(=O)OCc2c1cc1n(c2=O)Cc2cc3ccccc3nc2-1 [CAMPTOTHECIN] |  |  |  |  |  |  |  | 40 | 
15 | CC[C@@]1(O)C(=O)OCc2c1cc1n(c2=O)C(OCCF)c2cc3cc(O)ccc3nc2-1 (some centres undefined) | 500 | 250 | 4000 | 4500 | 20000 | 10000 | 10000 |  | 
16 | CCOC1c2cc3cc(O)ccc3nc2-c2cc3c(c(=O)n21)COC(=O)[C@]3(O)CC (some centres undefined) |  |  |  |  |  |  |  | 2880 | 
17 | CCc1c2c(nc3ccc(O)cc13)-c1cc3c(c(=O)n1C2OCCF)COC(=O)[C@]3(O)CC (some centres undefined) | 8000 | 1000 | 100 | 500 | > 30000 | 1000 | 25000 |  | 
18 | CC[C@@]1(O)C(=O)OCc2c1cc1n(c2=O)C(OCC(F)(F)F)c2cc3cc(O)ccc3nc2-1 (some centres undefined) | 100 | 100 | 200 | 260 | 30 | 100 | 60 |  | T-C/C (Mus musculus [4]): 46%; T-C/C (Mus musculus [5]): 4%; T-C/C (Mus musculus [7]): 27%; T-C/C (Mus musculus [8]): 21%; T-C/C (Mus musculus [10]): 46%; T-C/C (Mus musculus [11]): 8%; T-C/C (NCI-H23 [24]): 58%; T-C/C (NCI-H23 [25]): 58%; T-C/C (NCI-H23 [26]): 12%
19 | CCc1c2c(nc3cccc(OC)c13)-c1cc3c(c(=O)n1C2OCC(F)(F)F)COC(=O)[C@]3(O)CC (some centres undefined) | 2830 | 3900 | 1840 | 2630 | 2130 | 4680 | 1580 |  | 
20 | CC[C@@]1(O)C(=O)OCc2c1cc1n(c2=O)C(OCCOC)c2cc3cc(O)ccc3nc2-1 (some centres undefined) | 1200 | 680 | < 10 | 4500 | 5000 | 520 | 4000 |  | 
21 | CC[C@@]1(O)C(=O)OCc2c1cc1n(c2=O)C(OCCO)c2cc3c([N+](=O)[O-])cccc3nc2-1 (some centres undefined) | 3360 | 4130 |  | 7140 | 4660 | 2460 | 2450 |  | 
22 | CC[C@@]1(O)C(=O)OCc2c1cc1n(c2=O)C(OCCF)c2cc3c([N+](=O)[O-])cccc3nc2-1 (some centres undefined) | 250 | 630 | 200 | 740 | 310 | 400 | 360 |  | 
23 | CCOC1c2c(nc3ccc(O)cc3c2CC)-c2cc3c(c(=O)n21)COC(=O)[C@]3(O)CC (some centres undefined) |  |  |  |  |  |  |  | 5000 | 
24 | CCc1c2c(nc3cccc(OC)c13)-c1cc3c(c(=O)n1C2OCCO)COC(=O)[C@]3(O)CC (some centres undefined) | 3820 | 5020 | 5530 | 8400 | 1100 |  | 6470 |  | 
